One experiment relates to Respiratory Syncytial Virus. The experiment can be described thus: microbe, parasite or virus in culture. The settings on record: RSV-infected HeLa cells, MTT readout seven days after infection; −log of EC50 in molar units. The format is cell-based. From the text: In vitro Screening for Activity against Respiratory Syncytial Virus.
The percent protection against cytopathology caused by viruses (antiviral activity or EC50) achieved by tested compounds and their cytotoxicity (CC50) are both calculated from dose-response curves. The selectivity of the antiviral effect is represented by the selectivity index (SI), calculated by dividing the CC50 (cytotoxic dose for 50% of the cells) by the EC50 (antiviral activity for 50% of the cells).
Automated tetrazolium-based colorimetric assays were used for determination of EC50 and CC50 of test compounds. Flat-bottom, 96-well plastic microtiter trays were filled with 180 μl of Eagle's Basal Medium, supplemented with 5% FCS (0% for FLU) and 20 mM Hepes buffer. Subsequently, stock solutions (7.8× final test concentration) of compounds were added in 45 μl volumes to a series of triplicate wells so as to allow simultaneous evaluation of their effects on virus- and mock-infected cells. Five five-fold dilutions were made directly in the microtiter trays using a robot system. Untreated virus controls, and HeLa cell controls were included in each test. Approximately 100 TCID50 of Respiratory Syncytial Virus was added to two of the three rows in a volume of 50 μl. The same volume of medium was added to the third row to measure the cytotoxicity of the compounds at the same concentrations as those used to measure the antiviral activity. After two hours of incubation, a suspension (4×10^5 cells/ml) of HeLa cells was added to all wells in a volume of 50 μl. The cultures were incubated at 37° C. in a 5% CO2 atmosphere. Seven days after infection the cytotoxicity and the antiviral activity was examined spectrophotometrically. To each well of the microtiter tray, 25 μl of a solution of MTT (3-(4,5-dimethylthiazol-2-yl)-2,5-diphenyltetrazolium bromide) was added. The trays were further incubated at 37° C. for 2 hours, after which the medium was removed from each cup. Solubilization of the formazan crystals was achieved by adding 100 μl 2-propanol. Complete dissolution of the formazan crystals were obtained after the trays have been placed on a plate shaker for 10 min. Finally, the absorbances were read in an eight-channel computer-controlled photometer (Multiskan MCC, Flow Laboratories) at two wavelengths (540 and 690 nm). The absorbance measured at 690 nm was automatically subtracted from the absorbance at 540 nm, so as to eliminate the effects of non-specific absorption.
The compound `Cc1cccc(N(CCO)Cc2ccc3nc(NCCCN4CCOCC4)n(Cc4nc(C)ccc4O)c3c2)c1` [Compound 86] registered an Activity of 9.3.

In turn, `Cc1cc(C)cc(N(CCCC(N)=O)Cc2ccc3nc(NCC(O)CN4CCOCC4)n(Cc4nc(C)ccc4O)c3c2)c1.Cl` (stereo not drawn) [Compound 178, 4-{(3,5-Dimethyl-phenyl)-[3-(3-hydroxy-6-methyl-pyridin-2-ylmethyl)-2-(2-hydroxy-3-morpholin-4-yl-propylamino)-3H-benzoimidazol-5-ylmethyl]-amino}-butyramide, HCl salt] came in with an Activity of 9.6.

The compound `Cc1ccc(CCCCO)c(NCc2ccc3nc(NCCCN4CCOCC4)n(Cc4nc(C)ccc4O)c3c2)c1` [Compound 20] showed an Activity of 9.2.

The compound `Cc1ccc(O)c(Cn2c(NCCCN3CCOCC3)nc3cc(CO)ccc32)n1` [Compound 53] showed an Activity of 5.6.

Take `Cc1ccc(O)c(Cn2c(NCCCN3CCOCC3)nc3ccc(CNc4ccccc4C#N)cc32)n1` [Compound 27]: the Activity was determined as 8.7.

Consider `CCc1ccccc1NCc1ccc2nc(NCCCN3CCOCC3)n(Cc3nc(C)ccc3O)c2c1` [Compound 41], for which the Activity was found to be 8.3.

Regarding `Cc1ccc(O)c(Cn2c(NCCCN3CCOCC3)nc3ccc(CNc4cccc(CCO)c4)cc32)n1` [Compound 47], the Activity is given as 7.9.

On to `Cc1ccc(O)c(Cn2c(NC3CCN(CCN4CCOCC4)CC3)nc3c(C)cccc32)n1` [Compound 166], for which the Activity came to 6.8.

With `Cc1ccc(C)c(NCc2ccc3nc(NCCCN4CCOCC4)n(Cc4nc(C)ccc4O)c3c2)c1` [Compound 40], the Activity was determined as 8.4.

`Cc1ccc(O)c(Cn2c(NCCCN3CCOCC3)nc3ccc(CNc4cc(Br)ccc4CCO)cc32)n1` [Compound 11]: the Activity is given as 9.6.

The compound `Cc1cc(C)cc(NCc2ccc3c(c2)nc(NCCCN2CCOCC2)n3Cc2nc(C)ccc2O)c1` [Compound 51] displayed an Activity of 7.2.

`Cc1ccc(O)c(Cn2c(NCCCN3CCOCC3)nc3ccc(CN(CCO)c4ccccc4C)cc32)n1` [Compound 110] yielded an Activity of 7.8.

Turning to `Cc1ccc(O)c(Cn2c(NCCCN3CCOCC3)nc3ccccc32)n1` [compound 155], the Activity worked out at 6.8.

For the compound “2-[5,7-dimethyl-2-(2-morpholin-4-ylethyl-piperidin-4-ylamino)-benzoindazol-1-ylmethyl]-6-methyl-pyridin-3-ol [Compound 162]”, the Activity came out at 7.9.

In turn, `Cc1ccc(O)c(Cn2c(NCCCN3CCOCC3)nc3ccc(CNc4cc(C(C)C)ccc4CCO)cc32)n1` [Compound 17] returned an Activity of 9.3.

The same experiment, now with this note: pEC50 (−log of EC50 when expressed in molar units), protection against RSV cytopathology.
As for `C#Cc1cccc(NCc2ccc3nc(NCCCN4CCOCC4)n(Cc4nc(C)c(C)nc4C)c3c2)c1` [Compound 290], the Activity was determined as 7.

Consider `Cc1ccc(CCCO)c(NCc2ccc3nc(NCCCN4CCOCC4)n(Cc4cccc(C)n4)c3c2)c1` [Compound 274], for which the Activity is recorded as 7.2.

`OCCCc1ccc(C(F)(F)F)cc1NCc1ccc2nc(NCCCN3CCOCC3)n(Cc3cc(Br)ccc3O)c2c1` [Compound 217] yielded an Activity of 8.7.

As to `COc1ccc(C)nc1Cn1c(NCCCN2CCOCC2)nc2ccc(CNc3cc(C)ccc3CCO)cc21` [Compound 220], the Activity was 8.6.

As for `COc1ccc(C)nc1Cn1c(NCCCN2CCOCC2)nc2ccc(CNc3ccc(C)cc3CO)cc21` [Compound 280], the Activity was determined as 7.1.

The compound `COc1ccc(C)nc1Cn1c(NCCCN2CCOCC2)nc2ccc(CNc3ccccc3CO)cc21` [Compound 279] had an Activity of 7.1.

As to `Cc1cccc(NCc2ccc3nc(NCCCN4CCOCC4)n(Cc4cccc(C)n4)c3c2)c1` [Compound 338], the Activity is 5.4.

`Cc1cccc(NCc2ccc3c(c2)nc(NCCCN2CCOCC2)n3C2CCCc3nc(C)c(C)nc32)c1CCO` (stereo not drawn) [Compound 292] displayed an Activity of 7.

`Cc1cc(C)cc(N(CCO)Cc2ccc3nc(NCCCN4CCOCC4)n(Cc4cccc(C)n4)c3c2)c1` [Compound 281] showed an Activity of 7.1.
